Test results as given in US7468379B2, “Inhibition of osteolytic lesions by SRC kinase inhibitors” (The Board of Regents of the University of Texas System, priority 2005, dated 2008).

Tests used:
[1] = tested on: Src-dependent protein tyrosine phosphorylation; test: Src-dependent protein tyrosine phosphorylation; conditions: concentrations comparable to the Src enzyme IC50
RAW264.7 cells [2] = test: RAW264.7 co-culture with MDA-MB-435 cells, osteoclastogenesis (TRAP); type: cell-based, mouse; conditions: 400 nM SKI606, 5 days
Experimental: (§1) FIGS. 4A-4B. […] (FIG. 4B) RAW264.7 cells (750 cells/well; 8 wells per treatment) were plated in 96 well plates in 10% conditioned media from MDA-MB-435 for 5 days. The cultures were fixed and stained for TRAP on day five, using a TRAP staining kit from Sigma-Aldrich (St. Louis, Mo.). Data shown is representative of five experiments.
RAW 264.7 Co-culture with MDA MB435 cells and Conditioned Media. For co-culture assays RAW264.7 (500 cells/well) were plated in 96 well plates and allowed to adhere for 12 hours. MDA-MB-435 were then introduced into the RAW264.7 culture at increasing density and incubated for 12 hours. […] Cells were then fixed, stained for TRAP and the numbers of osteoclasts were counted in each condition as described above.

BMM cells [3] = test: Cytotoxicity assay against BMM cells (crystal violet); type: cell-based
Experimental: (§2) Primary Bone Marrow Cell Culture. Primary bone marrow cells (BMM) from the tibiae and femora were aseptically dissected from Black 6 mice (C57BU6J) 8-12 weeks of age. Bone marrow was flushed out with incomplete D-MEM and centrifuged at 1200 rpm for 3 minutes and re-suspended in 5 ml incomplete D-MEM. BMM cells were incubated in 20 ml Red Blood Cell lysis buffer (8.3 g/NH4Cl, 1 g/l sodium bicarbonate, 0.4 g/l EDTA) at room temperature for 1-2 min. 25 ml of D-MEM supplemented with 10% FBS and 100 units/ml penicillin (complete D-MEM) were added and BMM cells were centrifuged for 3 min at 1200 rpm. BMM cells were then plated at 1.5−2×10^7 cells/10 cm dish with 10 ml of complete D-MEM and cultured for 24 h. Non-adherent cells were collected and centrifuged for 5 min at 1200 rpm and plated at a concentration of 2.5×10^4 cells/well in a 96 well dish for cytotoxicity assay, 2×10^4 cells/well in 48-well plates, or 5×10^3 cells/well in 96-well plates for osteoclast differentiation assays. Cells were cultured for 3 days in the presence of 10 ng/ml M-CSF before they were washed and used for further studies. For differentiation into osteoclasts 30-100 ng/ml RANKL is added. Media was supplemented after 2 days with fresh M-CSF and RANKL.
Cytotoxicity Assay. […] Absorbance was measured at 630 nm using an EL800 universal microplate reader from Bio-Tek Instruments Inc (Winooski, Vt.).

BMM cells [4] = test: Bone-resorption assay (collagen I release from OsteoAssay plates); type: cell-based, Black 6 mice (C57BL/6J); conditions: 300 nM SKI606 with M-CSF and RANKL, compared to M-CSF and RANKL treatment, day 5
Experimental: as §2, with “Cells were cultured for 3 days in the presence of 10 ng/ml M-CSF before they were washed and used for further studies. For differentiation into osteoclasts 30-100 ng/ml RANKL is added. Media was supplemented after 2 days with fresh M-CSF and RANKL.” left out
Bone-Resorption Assay. […] Bone resorption was evaluated by measuring collagen I release from the OsteoAssay plate using Cross Laps for Culture ELISA kit from Nordic Bioscience Diagnostics (Portsmouth, Va.). Absorbance was measured at 450 nm using the reading at 650 nm as reference using an EL800 universal microplate reader from Bio-Tek Instruments Inc (Winooski, Vt.).

BMM cells [5] = test: Time-dependency of osteoclast differentiation inhibition in BMM cells; type: cell-based, Black 6 mice (C57BL/6J); conditions: 300 nM SKI606 added 12, 24 or 48 hours post-RANKL stimulation, TRAP at 96 h
Excerpt: FIGS. 2A-2B. BMM cells respond to SKI606 in a time-dependent manner. […] M-CSF was replenished on day 3. Cells were fixed and stained for TRAP on day five, using a TRAP staining kit from Sigma-Aldrich (St. Louis, Mo.). (FIG. 2B) Data shown is representative of three experiments. Photographs are of representative fields from the different treatments using a 10× objective lens.
(§3) Primary Bone Marrow Cell Culture. Primary bone marrow cells (BMM) from the tibiae and femora were aseptically dissected from Black 6 mice (C57BU6J) 8-12 weeks of age. Bone marrow was flushed out with incomplete D-MEM and centrifuged at 1200 rpm for 3 minutes and re-suspended in 5 ml incomplete D-MEM. BMM cells were incubated in 20 ml Red Blood Cell lysis buffer (8.3 g/NH4Cl, 1 g/l sodium bicarbonate, 0.4 g/l EDTA) at room temperature for 1-2 min. 25 ml of D-MEM supplemented with 10% FBS and 100 units/ml penicillin (complete D-MEM) were added and BMM cells were centrifuged for 3 min at 1200 rpm. BMM cells were then plated at 1.5−2×10^7 cells/10 cm dish with 10 ml of complete D-MEM and cultured for 24 h. […]
Time-dependency. […] Cells were then fixed, stained for TRAP and the numbers of osteoclasts were counted in each condition as described above.

BMM cells [6] = test: In vitro RANKL-mediated osteoclast differentiation of BMM cells (TRAP staining); type: cell-based, Black 6 mice (C57BL/6J); conditions: M-CSF 10 ng/ml and RANKL 100 ng/ml, TRAP staining on day five
Excerpt: FIGS. 1A-1C. […] M-CSF was replenished on day 3. Cells were fixed and stained for TRAP on day five, using a TRAP staining kit from Sigma-Aldrich (St. Louis, Mo.). (FIG. 1C) Data shown is representative of three experiments. Shown are photographs of representative fields from the different treatments using a 10× objective lens.
as §3
In Vitro Osteoclast Differentiation. […] At day 5, cells were fixed and assessed for osteoclast differentiation by counting the total number of TRAP-positive, multinucleated (>3 nuclei), cells per well 96 h post-treatment using Leucocyte Acid phosphatase kit from Sigma-Aldrich (St. Louis, Mo.).

MDA-MB-435 cells = test: MDA-MB-435 Bone Tumor Mouse Model (intratibial injection); type: in vivo, Female athymic NCr nude mice; conditions: SKI606 150 mg/kg oral gavage, 9 weeks; tumor-injected tibia sections
Experimental: Mice were divided into 3 treatment groups. […] (FIG. 5A) Weight of tumor was determined as follows: weight of injected leg-weight of non-injected hind leg of the same animal. (FIG. 5B) Areas of lysis were estimated from digital X-ray images; NIH Scion program was used to measure area of tibias and lytic areas, to calculate the ratio of pixels in lytic zones/pixels in tibia area. (FIG. 5C) The tumor-injected tibia was fixed and decalcified in EDTA, and sections stained for the presence of multinucleated osteoclasts (>3 nuclei) using TRAP staining kit from Sigma-Aldrich (St. Louis, Mo.).
X-ray images were taken at 35 days after injection, and also at 14-day intervals. […]
Intrabone Injections and Processing of Bone Tissue Samples. […] After 9 weeks, final X-ray images were taken, tumor weight calculated from the difference in weight of the tumor-bearing and non tumor-bearing leg of the same animal. […] Incidence of tumor in the tibia was determined by examination of histology sections. Weight of tumor was determined as follows: weight of injected leg-weight of non-injected hind leg of the same animal. […]
Mice were divided into three treatment groups and the incidence of tumor in the tibia was determined by examination of histology sections and weight of tumor.

RAW264.7 cells [7] = test: RAW264.7 with conditioned media from MDA-MB-435 cells, osteoclastogenesis (TRAP); type: cell-based, mouse; conditions: 10% conditioned media, 5 days
Experimental: as §1
For conditioned media the MDA-MB-435 cells were plated in 10 cm plates (1×10^6 cells/plate) and incubated for 36 hours. Media was then removed, centrifuged for 5 minutes at 2500 rpm and supernatants were isolated and placed in 4° C. until use. RAW264.7 cells (750 cells/well) were plated in 96 well plates and allowed to adhere for 12 hours. […] Cells were then fixed, stained for TRAP and the numbers of osteoclasts were counted in each condition as described above.

COc1cc(Nc2c(C#N)cnc3cc(OCCCN4CCN(C)CC4)c(OC)cc23)c(Cl)cc1Cl [SKI606, 4-((2,4-Dichloro-5-methoxyphenyl)amino)-6-methoxy-7-(3-(4-methyl-1-piperazinyl)propoxy)-3-quinolinecarbonitrile]
inhibition of Src-dependent protein tyrosine phosphorylation [1]: inhibits Src-dependent protein tyrosine phosphorylation at comparable concentrations | inhibition of MDA-MB-435-induced osteoclastogenesis in RAW264.7 cells (RAW264.7 cells [2]): significantly inhibited | cells died (cytotoxicity to BMM cells) (BMM cells [3]; 600 nM SKI606, 72 h): less than 10% | cytotoxicity to BMM cells (BMM cells [3]; 72 h): not cytotoxic | decrease in collagen I release, an indicator of bone resorption (BMM cells [4]): 3.7 fold | sensitivity of BMM cells to compound added after initiation of osteoclastogenesis (BMM cells [5]): less sensitive | effect on RANKL-mediated osteoclast differentiation in BMM (BMM cells [6]): inhibitory effect on RANKL-mediated osteoclast differentiation in BMM in a dose dependent manner | TRAP-positive cells counted in sections of tumors (MDA-MB-435 cells): significantly fewer | inhibition of osteoclastogenesis induced by conditioned media from MDA-MB-435 cells (RAW264.7 cells [7]): able to inhibit
